# Reference: paper PMC3283556, “The Activities of Current Antimalarial Drugs on the Life Cycle Stages of Plasmodium: A Comparative Study with Human and Rodent Parasites” (PLoS Medicine, 2012)
# Read-outs that look alike come from different tables or passages of the source.
# Columns and labels:
# [1] = test system: P. yoelii liver stage parasites (liver schizonts); experiment: P. yoelii liver stage assay in HepG2 cells (EEF immunofluorescence); format: cell-based, Plasmodium yoelii; settings: for IC50: Plasmodium yoelii; for potency range against liver stages: dose response
# Experimental: (§1) 7.5×10^3 HepG2 cells in 50 µl of medium (1.5×10^5 cells/ml) were seeded in 384 well plates (Aurora 384 IQ-EB Black/Clear Plates) 20–26 h prior to the actual infection. 2 h prior to infection, 50 nl of compound in DMSO (0.1% final DMSO concentration per well) were transferred with a PinTool (GNF Systems) into the assay plates (10 µM final concentration). P. yoelii sporozoites were freshly dissected from infected A. stephensi mosquito salivary glands and filtered twice with a 40-µm strainer. The HepG2 cells were then infected with 8×10^3 sporozoites per well. After infection and 1-h incubation at 37°C, the cultures were washed, new media and compound added, and further incubated with 5-fold increased concentration of penicillin/streptomycin for 48 h at 37°C before exoerythrocytic forms (EEFs) quantification of infected cells by immunofluorescence.
# After washing with 1×PBS and fixation of the cells with 4% paraformaldehyde solution (EMS), membranes were permeabilised with 0.5% Triton-X-100 (Thermo Fisher Scientific) and EEFs were stained using a mouse polyclonal serum raised against the Plasmodium heat shock protein 70 (HSP70), an Alexa goat antimouse IgG, Fca-specific DyLight 649 secondary antibody (Invitrogen), and the Hoechst 33342 nucleic acid dye (Invitrogen). Stained EEFs were then quantified using the Opera Confocal High Content Screening system (PerkinElmer). Images were collected using a 20× magnification at a binning of 2 using a 365 Xeon arc lamp illumination to detect the nuclei and 635-nm laser line to excite DyLight649.
# (§2) High-content imaging of infected HepG2-CD81 cells was performed as described in Meister et al.. Wells were analysed using a custom Acapella (PerkinElmer) script parameterized for this assay. In brief, images from fields inside the well were first discarded as out of focus when the intensity in the nuclear area was too low. Then hepatic cells were counted by detecting the nuclei labelled with Hoechst 33342 and parasites were segmented using the HSP70 immuno-labelling. Morphology-based (e.g., area, roundness) and intensity-based features were calculated for each object detected including the hepatocyte nuclei and the parasites. Parasitemia was set as the ratio between parasite number (Alexa fluor positive) and the hepatocyte nuclei count, determined at the same time.
# (§3) When an infected mosquito bites a host, ∼100 sporozoites may be injected into the dermis from where they rapidly invade liver cells,[33]. This infective step represents the second bottleneck during transmission and therefore another potentially vulnerable point for intervention. In the absence of a practical liver stage assay measuring the formation of P. falciparum/P. vivax liver schizonts, an equivalent assay was developed in P. yoelii and used to assess the activity of the collection of molecules against this specific stage. Specifically, P. yoelii sporozoites were dissected from the salivary glands of infected mosquitoes and were allowed to invade human hepatocarcinoma cells expressing the CD81 protein. The development of the liver schizonts was monitored by immunofluorescence staining using an HSP70 antibody specific to the parasite (Figure 4A).
# Figure 4 Validation and results of anti-infectives tested against P. yoelii liver stage parasites. (A) Opera-generated images from a time point experiment using a 20× objective lens. P. yoelii parasites (red) were visualized using a mouse polyclonal HSP70 antibody, and the HepG2 cells (green) were stained with Hoechst 33342 nucleic acid dye. […] (B) A dose response plot with atovaquone from data generated from the Opera imaging system. The median areas of compound-treated parasites were compared to untreated DMSO controls to determine the degree of inhibition.
# HepG2 cells = experiment: Growth retardation of HepG2 cells; settings: for IC50: Homo sapiens, HepG2, read-out: IC50 HepG2
# Experimental: as §1, §2, §3
# [2] = test system: P. falciparum asexual blood stage parasites (strains NF54, D6, K1, W2, 7G8, TM90C2A, V1/S); experiment: [3H]-hypoxanthine incorporation growth inhibition assay, asexual blood stage; format: cell-based, Plasmodium falciparum; settings: for IC50: Plasmodium falciparum; for resistance / retention of potency against resistant strains: drug-resistant strains; for fold reduction in potency: against all drug-resistant strains containing the mutated chloroquine transporter (PfCRT)
# Experimental: In vitro antimalarial activity was measured using the [^3H]-hypoxanthine incorporation assay with various strains of P. falciparum obtained from MR4. Results were expressed as the concentration resulting in 50% inhibition (IC50).
# The half-maximal inhibitory concentrations (IC50) were determined for each molecule (Table S2).
# Figure 2 The potencies of selected antimalarials against asexual blood stages. Main classes of antimalarials were tested against the blood stage of seven Plasmodium falciparum strains in the [^3H]hypoxanthine incorporation assay as described in Vennerstrom et al.. The strains tested here (obtained from MR4) were two drug-sensitive strains NF54 and D6 and five drug-resistant strains: K1, resistant to chloroquine (CQ) and pyrimethamine (PYR), origin Thailand, carries mutations in genes pfmdr1, pfcrt, pfdhfr, pfdhps; W2, resistant to CQ, PYR, quinine, cycloguanil, and sulfadoxine, origin Vietnam; 7G8, resistant to CQ and PYR, origin Brazil; TM90C2A, resistant to CQ, PYR, and MFQ, origin Thailand; and V1/S, resistant to CQ, PYR and cycloguanil, origin Vietnam. Results are expressed as the concentration resulting in 50% growth inhibition (IC50).Values are means of ≥3 independent experiments. (A) Endoperoxides. (B) 4-AQs. (C) 8-AQs and amino alcohols. (D) Antifolates, antibiotics, and others.
# [3] = test system: P. falciparum mature gametocytes / male gamete exflagellation; experiment: P. falciparum exflagellation assay; format: cell-based, Plasmodium falciparum; settings: for inhibition at 10 µM: Plasmodium falciparum
# Experimental: After 24 h, exflagellation was triggered by a temperature decrease to ∼21°C and observed 20 min later under the microscope. Highly motile exflagellation centres were recorded for ∼50–150 adjacent fields of view and reported per 10,000 RBCs.
# (A) Assays examined exflagellation (P. falciparum), ookinete formation (P. berghei), or oocyst formation (P. falciparum). All antimalarials were screened at 10 µM. (B) The biological content of the in vitro P. berghei ookinete assay spans gamete formation, fertilization, zygote development, and ookinete formation. […] (D) The in vitro P. falciparum exflagellation assay exposes mature gametocytes to antimalarials for 24 h before triggering exflagellation. […] All experiments in triplicate. (E) The in vivo P. falciparum oocyst assay differs from the P. berghei oocyst assay in that mature gametocytes were exposed to the antimalarials in culture for 24 h before feeding to mosquitoes.
# [4] = HepG2, development of P. yoelii liver schizonts following infection of HepG2 cells, read-out: IC50 Parasite
# [5] = HepG2, dose response, read-out: IC50 liver stage
# [6] = HepG2, box linked to liver schizont, read-out: IC50 (liver schizont, Figure 5)
# [7] = HepG2, dose response, median parasite area (Opera), read-out: IC50 liver stage
# [8] = 10 µM, 24 h exposure of mature gametocytes
# [9] = 10 μM, box linked to gametocytes/exflagellation, read-out: Inhibition at 10 μM (gametocytes/exflagellation, Figure 5)
# [10] = asexual blood stage, all parasite lines, read-out: IC50
# [11] = asexual blood stage, both drug-resistant and -sensitive strains, read-out: IC50
# [12] = read-out: inhibition of exflagellation, 10 µM, 24 h exposure of mature gametocytes
# [13] = asexual blood stage, all parasite lines
smiles,measurement,setting,value
"OC(c1cc(C(F)(F)F)nc2c(C(F)(F)F)cccc12)C1CCCCN1 (racemic) [racemic mefloquine, mefloquine]",IC50,[1]; [4],1690 ± 1450 nM
same,IC50,HepG2 cells,1730 ± 600 nM
same,CI (cytotoxicity index),"HepG2 cells; human, 48 h",1.02
same,IC50,[2],< 10 nM
CCN(CC)CCCNc1ccnc2cc(Cl)ccc12 [AQ-13],IC50,[1]; [5],< 3000 nM
CCc1nc(N)nc(N)c1OCCCOc1ccccc1CCC(=O)O [P218],IC50,[1]; [6],< 1000 nM
same,IC50,[1]; [7],< 10 nM
N=C(N)c1ccc(OCCCCCOc2ccc(C(=N)N)cc2)cc1 [Pentamidine],IC50,[1]; [4],2460 ± 570 nM
same,IC50,HepG2 cells,3750 ± 1100 nM
same,CI (cytotoxicity index),"HepG2 cells; human, 48 h",1.52
CCN(CC)Cc1cc(Nc2ccnc3cc(Cl)ccc23)ccc1O [amodiaquine],effect on exflagellation (words),[3]; [8],inhibited P. falciparum exflagellation
same,inhibition at 10 µM,[3]; [9],> 60%
same,IC50,[1]; [5],< 3000 nM
same,IC50,[2]; [10],2 to 10 nM
same,resistance / retention of potency against resistant strains,[2],do not lose potency when tested against chloroquine resistant strains
C[C@@H]1CC[C@H]2[C@@H](C)C(=O)O[C@@H]3O[C@@]4(C)CC[C@@H]1[C@]32OO4 [artemisinin],IC50,[2]; [10],1 to 15 nM
C[C@H]1[C@H](N2CCS(=O)(=O)CC2)O[C@@H]2O[C@@]3(C)CC[C@H]4[C@H](C)CC[C@@H]1[C@@]24OO3 [artemisone],IC50,[1]; [6],< 1000 nM
same,IC50,[1]; [7],< 100 nM
C[C@H]1[C@H](OC(=O)CCC(=O)O)O[C@@H]2O[C@@]3(C)CC[C@H]4[C@H](C)CC[C@@H]1[C@@]24OO3 [artesunate],IC50,[1]; [6],< 1000 nM
same,IC50,[2]; [10],1 to 15 nM
CC[C@H]1OC(=O)[C@H](C)[C@@H](O[C@H]2C[C@@](C)(OC)[C@@H](O)[C@H](C)O2)[C@H](C)[C@@H](O[C@@H]2O[C@H](C)C[C@H](N(C)C)[C@H]2O)[C@](C)(O)C[C@@H](C)CN(C)[C@H](C)[C@@H](O)[C@]1(C)O [azithromycin],IC50,[2]; [11],1000 to 10000 nM
COc1cc(NC(C)CCCNC(C)=C2CCOC2=O)c2ncccc2c1 (stereo not drawn) [bulaquine],IC50,[2]; [11],500 to 2500 nM
CCN(CC)CCCC(C)Nc1ccnc2cc(Cl)ccc12 (stereo not drawn) [chloroquine],enhancement (stimulation) of exflagellation,[3]; [8],at least 20%
same,fold reduction in potency,[2],6–100 fold
CC1(C)N=C(N)N=C(N)N1c1ccc(Cl)cc1 [cycloguanil],IC50,[1]; [6],< 1000 nM
same,IC50,[1]; [7],< 10 nM
same,IC50,"[2]; Erythrocyte, read-out: IC50 (erythrocyte schizont, Figure 5), box linked to blood stage schizont",< 4 nM
same,fold loss of potency,[2]; between sensitive and resistant strains,≥ 100 fold
CC(=O)N(O)CCCCCNC(=O)CCC(=O)N(O)CCCCCNC(=O)CCC(=O)N(O)CCCCCN [deferoxamine],IC50,[1]; [6],< 1000 nM
same,potency range against liver stages,[1],submicromolar potencies
C[C@]12CC[C@H](O)CC1=CC[C@@H]1[C@@H]2CC[C@]2(C)C(=O)CC[C@@H]12 [dehydroepiandrosterone],IC50,"[2]; asexual blood stage, both drug-resistant and -sensitive strains",1000 to 10000 nM
CCN(CC)CCCC(C)Nc1cc(OC)cc2cccnc12 (stereo not drawn) [diethylprimaquine],inhibition at 10 µM,[3]; [12],> 70%
same,IC50,[2]; [11],500 to 2500 nM
CCN(CCO)CCCC(C)Nc1ccnc2cc(Cl)ccc12 (stereo not drawn) [hydroxychloroquine],enhancement (stimulation) of exflagellation,[3]; [8],at least 20%
same,fold reduction in potency,[2],6–100 fold
CN(C)c1ccc2nc3ccc(=[N+](C)C)cc-3sc2c1 [methylene blue],IC50,[1]; [6],< 1000 nM
same,IC50,[1]; [7],< 100 nM
CC(C)(C)NCc1cc(Nc2ccnc3cc(Cl)ccc23)c2c(c1O)CCCC2 [naphthoquine],IC50,[1]; [6],< 1000 nM
same,IC50,[1]; [5],< 3000 nM
same,IC50,[2]; [13],2 to 10 nM
same,resistance / retention of potency against resistant strains,[2],do not lose potency when tested against chloroquine resistant strains
Clc1ccc2c(N3CCN(CCCN4CCN(c5ccnc6cc(Cl)ccc56)CC4)CC3)ccnc2c1 [piperaquine],IC50,[2]; [13],2 to 10 nM
same,resistance / retention of potency against resistant strains,[2],do not lose potency when tested against chloroquine resistant strains
COc1cc(NC(C)CCCN)c2ncccc2c1 (stereo not drawn) [primaquine],enhancement (stimulation) of exflagellation,[3]; [8],15%
same,IC50,[2],500 to 2500 nM
[H]/N=C(\N/C(=N/[H])Nc1ccc(Cl)cc1)NC(C)C [proguanil],IC50,[1]; [4],11800 ± 5190 nM
same,IC50,HepG2 cells,15400 ± 3090 nM
same,CI (cytotoxicity index),HepG2 cells; IC50 HepG2 compared to IC50 parasite,1.31
same,IC50,[2]; [11],1000 to 10000 nM
C=C[C@H]1C[N@@]2CC[C@H]1C[C@@H]2[C@@H](O)c1ccnc2ccc(OC)cc12 [quinidine],IC50,[1]; [6],< 1000 nM
same,potency range against liver stages,[1],submicromolar potencies
Cc1cc2nc3c(=O)[nH]c(=O)nc-3n(C[C@H](O)[C@H](O)[C@H](O)CO)c2cc1C [riboflavin],IC50,[2]; [11],1000 to 10000 nM
Cc1cc(NS(=O)(=O)c2ccc(N)cc2)no1 [sulfamethoxazole],inhibition at 10 µM,[3]; [12],> 80%
same,inhibition at 10 µM,[3]; [9],> 60%
CC(C)(C)NCc1ccc(Nc2ccnc3cc(Cl)ccc23)cc1O [tert-butyl-isoquine],effect on exflagellation (words),[3]; [8],inhibited P. falciparum exflagellation
same,effect on exflagellation (words),"[3]; 10 µM, 24 h exposure of mature gametocytes, listed as tert-butyl isoquine",inhibited exflagellation totally
same,inhibition at 10 µM,[3]; [9],> 60%
same,IC50,[2]; [13],2 to 10 nM
same,resistance / retention of potency against resistant strains,[2],do not lose potency when tested against chloroquine resistant strains
COc1cc(Cc2cnc(N)nc2N)cc(OC)c1OC [trimethoprim],IC50,[2]; [11],1000 to 10000 nM
